Results on 25 molecules are retold here after US20250171459A1, “2-METHYL-4',5'-DIHYDROSPIRO[PIPERIDINE-4,7'-THIENO[2,3-C]PYRAN] DERIVATIVES AS INHIBITORS OF APOL1 AND METHODS OF USING SAME” (Vertex Pharmaceuticals Incorporated, priority 2022, published 2025).

For the test, the target named is T1, APOL1 (Homo sapiens, UniProt O14791).
T1 sequence (O14791 1-398 S342G/I384M): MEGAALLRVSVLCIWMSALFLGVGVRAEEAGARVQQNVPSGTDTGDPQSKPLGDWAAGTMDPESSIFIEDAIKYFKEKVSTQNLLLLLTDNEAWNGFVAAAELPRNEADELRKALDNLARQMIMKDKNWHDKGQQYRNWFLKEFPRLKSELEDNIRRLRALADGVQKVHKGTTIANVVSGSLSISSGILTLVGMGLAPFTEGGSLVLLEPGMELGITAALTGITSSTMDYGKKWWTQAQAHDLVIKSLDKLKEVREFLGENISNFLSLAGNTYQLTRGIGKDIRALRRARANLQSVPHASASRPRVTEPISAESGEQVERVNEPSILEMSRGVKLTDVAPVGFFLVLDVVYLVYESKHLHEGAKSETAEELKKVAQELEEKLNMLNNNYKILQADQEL
The test can be described thus: MultiTox-Fluor Multiplex Cytotoxicity Assay in tet-inducible APOL1 T-REx-HEK293 cells (cell rescue, ratio of dead to live cells). Format: cell-based. The conditions noted are these: tet-inducible transgenic APOL1 T-REx-HEK293 cell lines, 50 ng/mL tet, 24 hours; read-out: IP50 (i.e., IC50 for cell proliferation). An excerpt: The MultiTox-Fluor Multiplex Cytotoxicity Assay is a single-reagent-addition, homogeneous, fluorescence assay that measures the number of live and dead cells simultaneously in culture wells. The assay measures cell viability and cytotoxicity by detecting two distinct protease activities. […] The substrate enters intact cells, where it is cleaved to generate a fluorescent signal proportional to the number of living cells. […] A ratio of dead to live cells is used to normalize data.
The MultiTox reagent was added to each well and placed back in the incubator for an additional 30 minutes. The plate was read on the EnVision plate reader. A ratio of dead to live cells was used to normalize, and data was imported, analyzed, and fit using Genedata Screener (Basel, Switzerland) software. Data was normalized using percent of control, no tet (100% viability), and 50 ng/mL tet treated (0% viability), and fit using Smart Fit. The reagents, methods, and complete protocol for the MultiTox assay are described below.
Cells were washed with DPBS and then trypsinized to dissociate from the flask. Media was used to quench the trypsin, cells were then pelleted at 200 g and resuspended in fresh cell assay media (DMEM, 2% Tet-free FBS, 2 mM L-glutamine, 100 Units/mL penicillin-streptomycin). […] The plates were then incubated at room temperature for one hour.
Tetracycline is needed to induce APOL1 expression. 1 mg/mL tet stock in water was diluted to 250 ng/mL (5×) in cell assay media.
Compounds were dispensed at 200 nL in DMSO. The final top concentration was 10 μM with a 10 point 3-fold dilution in duplicate in the MultiTox assay.
20 μL was transferred from the 5× tet plate to the ARP and mixed, then 5 μL of 5× tet and the compounds were transferred to the cell plate and mixed using the Bravo. The cell plate was placed in the humidified 37° C. 5% CO2 incubator for 24 hours.
The MultiTox-Fluor Multiplex Cytotoxicity Assay was performed in accordance with the manufacturer's protocol. After cells were incubated with tet and compound for 24 hours, 25 μL of 1× MultiTox reagent was added to each well using the Multidrop dispenser; the plates were placed on a plate shaker (600 rpm) for 2 minutes, then centrifuged briefly and placed back in the 37° C. incubator for 30 minutes. The cell viability (excitation: 400 nm, emission: 486 nm) and cytotoxicity (excitation: 485 nm, emission: 535 nm) were read using the EnVision plate reader. A ratio of dead (cytotoxicity) to live (viability) cells was reported. Data was exported and analyzed in Genedata. Data was normalized using percent of control, no tet (100% viability), and 50 ng/mL tet treated (0% viability), and fit using Smart Fit settings in Genedata.

With `Cc1c(Cl)sc2c1C(O)CO[C@@]21CCN(Cc2cnn(CCS(C)(=O)=O)c2)[C@@H](C)C1` (single isomer, unassigned) [Compound 859, (2′S, 7R)-2-chloro-2′,3-dimethyl-1′-[[1-(2-methylsulfonylethyl)pyrazol-4-yl]methyl]spiro[4,5-dihydrothieno[2,3-c]pyran-7,4′-piperidine]-4-ol], the IC50 was under 100 nM. Turning to `C[C@H]1C[C@@]2(CCN1Cc1cnn(CCS(C)(=O)=O)c1)OCC(O)c1cc(C(F)(F)F)sc12` (single isomer, unassigned) [Compound 881], the IC50 was under 100 nM.

Consider `C[C@H]1C[C@@]2(CCN1Cc1cnn(CCS(C)(=O)=O)c1)OCC(O)c1cc(C(F)(F)F)sc12` (single isomer, unassigned) [Compound 882], for which the IC50 is under 100 nM. With `C[C@H]1C[C@@]2(CCN1Cc1cnn(CCS(C)(=O)=O)c1)OCC(O)c1cc(C(F)(F)C(F)F)sc12` (single isomer, unassigned) [Compound 1013], the IC50 is under 100 nM. Then `C[C@H]1C[C@@]2(CCN1Cc1cnn(CCS(C)(=O)=O)c1)OCC(O)c1cc(C(F)(F)C(F)F)sc12` (single isomer, unassigned) [Compound 1014, (2′S, 7R)-2′-methyl-1′-[[1-(2-methylsulfonylethyl)pyrazol-4-yl]methyl]-2-(1,1,2,2-tetrafluoroethyl)spiro[4,5-dihydrothieno[2,3-c]pyran-7,4′-piperidine]-4-ol], with under 100 nM; and `CCc1cc2c(s1)C(C)COC21CCN(Cc2cnn(C)c2)CC1` (single isomer, unassigned) [Compound 1170, 2-ethyl-7-methyl-1′-[(1-methylpyrazol-4-yl)methyl]spiro[6,7-dihydrothieno[3,2-c]pyran-4,4′-piperidine]], with 100 to 500 nM; and `CCc1cc2c(s1)C(C)COC21CCN(Cc2cnn(C)c2)CC1` (single isomer, unassigned) [Compound 1171, 2-ethyl-7-methyl-1′-[(1-methylpyrazol-4-yl)methyl]spiro[6,7-dihydrothieno[3,2-c]pyran-4,4′-piperidine]], with 500 to 1000 nM. Regarding `CCc1cc2c(s1)CCO[C@@]21CCN(C[C@H]2C[C@@H](NC(=O)C3CCc4ccccc4O3)C2)[C@H](C)C1` (stereo in doubt) [Compound 332], the IC50 was in the range of 100 to 500 nM. Consider `C[C@@H]1C[C@]2(CCN1Cc1cn(CC(O)C(C)(C)O)nn1)OCCc1cc(Cl)sc12` (stereo in doubt) [Compound 626, 1-(4-(((2R,4S)-2′-chloro-2-methyl-4′,5′-dihydrospiro[piperidine-4,7′-thieno[2,3-c]pyran]-1-yl)methyl)-1H-1,2,3-triazol-1-yl)-3-methylbutane-2,3-diol], for which the IC50 was under 100 nM. In the case of `C[C@@H]1C[C@]2(CCN1Cc1cnn(C)c1)OCCc1cc(Cl)sc12` (stereo in doubt) [Compound 630, (2R,4S)-2′-chloro-2-methyl-1-((1-methyl-1H-pyrazol-4-yl)methyl)-4′,5′-dihydrospiro[piperidine-4,7′-thieno[2,3-c]pyran]] it was under 100 nM; in that of `CCN1CC[C@]2(C[C@@H]1C)OCC(O)c1cc(Cl)sc12` (stereo in doubt) [Compound 821, (2′S,4S,7R)-2-chloro-1′-ethyl-2′-methyl-spiro[4,5-dihydrothieno[2,3-c]pyran-7,4′-piperidine]-4-ol], 100 to 500 nM; in that of `C[C@H]1C[C@@]2(CCN1Cc1cnn(CC(O)C(C)(C)O)c1)OCC(O)(C(F)F)c1cc(Cl)sc12` (stereo in doubt) [Compound 829, 1-[4-[[(2′S,4R,7R)-2-chloro-4-(difluoromethyl)-4-hydroxy-2′-methyl-spiro[5H-thieno[2,3-c]pyran-7,4′-piperidine]-1′-yl]methyl]pyrazol-1-yl]-3-methyl-butane-2,3-diol], under 100 nM. In the case of `CCc1cc2c(s1)CCO[C@@]21CCN(Cc2cn(C3CN(S(=O)(=O)CCO)C3)nn2)[C@@H](C)C1` [Compound 1, 2-[3-[4-[[(2′S,4R)-2-ethyl-2′-methyl-spiro[6,7-dihydrothieno[3,2-c]pyran-4,4′-piperidine]-1′-yl]methyl]triazol-1-yl]azetidin-1-yl]sulfonylethanol] it was under 100 nM; in that of `CCc1cc2c(s1)CCO[C@@]21CCN(Cc2cn(C3CN(S(=O)(=O)c4c[nH]cn4)C3)nn2)[C@@H](C)C1` [Compound 2], under 100 nM; in that of `CCc1cc2c(s1)CCO[C@@]21CCN(Cc2cn(C3CN(S(=O)(=O)c4nccn4C)C3)nn2)[C@@H](C)C1` [Compound 3], under 100 nM. As to `CCc1cc2c(s1)CCO[C@@]21CCN(Cc2cn(C3CN(S(=O)(=O)c4cn[nH]c4)C3)nn2)[C@@H](C)C1` [Compound 4], the IC50 was under 100 nM. In the case of `CCc1cc2c(s1)CCO[C@@]21CCN(Cc2cn(C3CN(S(=O)(=O)C4CC4)C3)nn2)[C@@H](C)C1` [Compound 5], the IC50 is under 100 nM. Consider `CCc1cc2c(s1)CCO[C@@]21CCN(Cc2cn(CCS(=O)(=O)NCCO)nn2)[C@@H](C)C1` [Compound 6, 2-[4-[[(2′S,4R)-2-ethyl-2′-methyl-spiro[6,7-dihydrothieno[3,2-c]pyran-4,4′-piperidine]-1′-yl]methyl]triazol-1-yl]-N-(2-hydroxyethyl)ethanesulfonamide], for which the IC50 is under 100 nM. As for `CCc1cc2c(s1)CCO[C@@]21CCN(Cc2cn(CCS(=O)(=O)NCC(C)O)nn2)[C@@H](C)C1` (stereo partly drawn) [Compound 7, 2-[4-[[(2′S,4R)-2-ethyl-2′-methyl-spiro[6,7-dihydrothieno[3,2-c]pyran-4,4′-piperidine]-1′-yl]methyl]triazol-1-yl]-N-(2-hydroxypropyl)ethanesulfonamide], the IC50 is under 100 nM.

For `CCc1cc2c(s1)CCO[C@@]21CCN(Cc2c[nH]nn2)[C@@H](C)C1` [Compound 8, (2′S,4R)-2-ethyl-2′-methyl-1′-(1H-triazol-4-ylmethyl)spiro[6,7-dihydrothieno[3,2-c]pyran-4,4′-piperidine]], the IC50 was under 100 nM. Consider `CCc1cc2c(s1)CCO[C@@]21CCN(Cc2cn(CCS(C)(=O)=O)nn2)[C@H](C)C1` [Compound 9, (2′R,4R)-2-ethyl-2′-methyl-1′-[[1-(2-methylsulfonylethyl)triazol-4-yl]methyl]spiro[6,7-dihydrothieno[3,2-c]pyran-4,4′-piperidine]], for which the IC50 lay within 500 to 1000 nM. In the case of `CCc1cc2c(s1)CCO[C@]21CCN(Cc2cn(CCS(C)(=O)=O)nn2)[C@H](C)C1` [Compound 10, (2′R,4S)-2-ethyl-2′-methyl-1′-[[1-(2-methylsulfonylethyl)triazol-4-yl]methyl]spiro[6,7-dihydrothieno[3,2-c]pyran-4,4′-piperidine]] it was 500 to 1000 nM. In the case of `CCc1cc2c(s1)CCO[C@@]21CCN(Cc2cn(CCS(C)(=O)=O)nn2)[C@@H](C)C1` [Compound 11, (2′S,4R)-2-ethyl-2′-methyl-1′-[[1-(2-methylsulfonylethyl)triazol-4-yl]methyl]spiro[6,7-dihydrothieno[3,2-c]pyran-4,4′-piperidine]] it was under 100 nM; in that of `CCc1cc2c(s1)CCO[C@@]21CCN(Cc2cn(CCS(=O)(=O)NC)nn2)[C@@H](C)C1` [Compound 12, 2-[4-[[(2′S)-2-ethyl-2′-methyl-spiro[6,7-dihydrothieno[3,2-c]pyran-4,4′-piperidine]-1′-yl]methyl]triazol-1-yl]-N-methyl-ethanesulfonamide], under 100 nM; in that of `CCc1cc2c(s1)CCO[C@@]21CCN(Cc2cn(CS(C)(=O)=O)nn2)[C@@H](C)C1` [Compound 13, (2′S)-2-ethyl-2′-methyl-1′-[[1-(methylsulfonylmethyl)triazol-4-yl]methyl]spiro[6,7-dihydrothieno[3,2-c]pyran-4,4′-piperidine]], under 100 nM.
